Assay results reported in patent US20140348807A1, “PROCESS FOR THE PREPARATION OF A BIOMASS COMPRISING PLANTARICIN AND USES THEREOF IN MEDICAL FIELD” (GIULIANI S.p.A., priority 2010, published 2014).
Like-named read-outs stand apart in the source and are kept apart here. Ends that are not written are not given here.

Key:
[1] = test system: Caco-2/TC7 cells; test: Caco-2/TC7 cell viability, Neutral Red absorption assay; assay type: cell-based, Human; conditions: for viability of Caco-2/TC7 cells (Neutral Red) vs DMEM negative control: 2.5 μg/ml, incubation 24-72 hours; for negative effect of IFN-γ on Caco-2/TC7 viability under simultaneous plantaricin A treatment: IFN-γ 1000 U/ml + plantaricin A 2.5 μg/ml
Procedure: Human Caco-2/TC7 cells (TC7 clone) have been cultured in Dulbecco medium (DMEM), added with calf serum (10%), not essential amino acids (1%), gentamycin/streptomycin (50 μg/ml), glutamine (2 mM) and 4-2-hydroxyethyl-1-piperazinil-etansulfonic acid (1%) (Di Cagno et al., 2010. Quorum sensing in sourdough Lactobacillus plantarum DC400: induction of plantaricin A (PlnA) under co-cultivation with other lactic acid bacteria and effect of PlnA on bacterial and Caco-2 cells. Proteomics in press). Cell viability has been determined with absorption assay using Neutral Red dye (Balls et al., 1987. Approaches to validation alternative methods in toxicology. In: Goldber A. M. (Ed). N.Y. Academic Press pp. 45-58). After 24-72 hour treatment with various preparations, cells have been washed with PBS buffer and incubated for 4 hours at 37° C. with a Neutral Red solution (33 mg/I). Successively, the cells have been again washed with PBS buffer and treated with lysis solution (50% ethanol in 1% acetic acid containing water). Plate reading has been carried out using Novapath plate reader (Biorad, Hercules, Calif.). Di Cagno et al., 2010. Quorum sensing in sourdough Lactobacillus plantarum DC400: induction of plantaricin A (PlnA) under co-cultivation conditions with other lactic acid bacteria and effect of PlnA on bacterial and Caco-2 cells. Proteomics in press).

[2] = test system: Caco-2/TC7 cells; test: TEER of Caco-2/TC7 cell layer; assay type: cell-based, Human; conditions: for negative effect of IFN-γ on Caco-2/TC7 TEER with added plantaricin A: IFN-γ 1000 U/ml + plantaricin A 2.5 μg/ml
Procedure: For TEER determination Caco-2/TC7 cells have been inoculated (7.5×10^4 cells/ml) in a 24 well plate and a polyethylene filter (0.4 μm pore). Before the treatment, the cells have been incubated for 21 days at 37° C. Treatments with various preparations have been carried out for 18, 24 and 48 hours. Integrity of the cellular layer therefore has been determined by means of TEER determination.

[3] = test system: human NCTC 2544 keratinocyte cell line; assay type: cell-based; conditions: 0.1 μg/ml
Procedure: The used cell line is a human NCTC 2544 keratinocyte cell line (Perry, V. P., Sanford, K. K., Evans, V. J., Hyatt, G. W., Earle, W. R., 1957. Establishment of clones of epithelial cells from human skin. J Natl Cancer Inst. 18 (5): 709-717) cultured in sterile flasks, incubated at 37° C. in humid atmosphere at 5% CO2 in MEM (Minimum Essential Medium) culture medium added with 10% bovine calf serum (FBS), 2 mM L-glutamine, 1% not essential amino acids, in the presence of 1% penicillin and streptomycin. Cells grow in vitro adhering to culture plate surface as a monolayer.
The experiment firstly involves the development of confluent cell monolayer. Successively the cut is carried out and the generated “gap” is observed using microscope as cells gradually moving repair the damage.
NCTC 2544 cells are plated and cultured at 37° C., with 5% CO2 for 24 hours.
After 24 hours complete growth medium is replaced with serum free medium to avoid the serum effect on cell proliferation and cells are incubated for further 24 hours at 37° C., 5% CO2.
After 24 hours the cell monolayer is mechanically damaged by mild 200 μl pipette tip brushing tracking a ˜1 mm wide horizontal line. Then the monolayer is washed and after addition of substances to be tested, the plates are incubated at 37° C., 5% CO2 for 72 hours.
the effect of the substances on cell motility is evaluated using phase contrast reverse microscope, acquiring images at various opportunely selected analysis times.
the damage remedy is determined measuring the clear area between the cut two migration fronts at 0, 4, 8, 12, 24, 48, 72 hours after the cut, using an image processing software (Leica application Suite).
After the cut on the cellular monolayer has been carried out using a 200 μl pipette tip and the cells within the gap between two cut lines completely removed, said cells are treated with synthetic and co-culture deriving Plantaricin at the following concentrations: 0.1-1-10 μg/ml. Also positive and negative controls (connectivine at 100 μg/ml) have been duplicate tested.
Images on the same cut area have been acquired at time 0 and after 4, 8, 12, 24, 48 and 72 hours, to monitor the cell migration in the cut area.

[4] = test system: Cultured human keratinocytes; test: Wound healing assay on cultured human keratinocyte monolayer (Example 2); assay type: cell-based; conditions: 1 hour incubation with stimulus (Plantaricin A 2.5 μg/ml), then 24 hours
Procedure: Cultured human keratinocytes have been incubated with Plantaricin A (2.5 μg/ml) or Plantaricin A containing biomass for 1 hour.
At the end of the incubation, the cells have been washed and culture medium restored.
The test consists of carrying out a mechanical interruption in the continuity of the cellular monolayer in order the treatment effect in favouring or not the keratinocyte ability to migrate beyond the damage border and therefore “heal the lesion” to be evaluated.
To this end the keratinocyte monolayer, treated as above described, was incubated over aditional 24 hours after stimulus application and then fixed and stained using ematoxylin/eosin staining. Images have been observed with light microscope using 5× objective.
For each image maximum cell migration limits and distance or gap there between have been detected and calculated, respectively (FIG. 9-10).

Substance | viability of Caco-2/TC7 cells (Neutral Red) vs DMEM negative control [1] | negative effect of IFN-γ on Caco-2/TC7 viability under simultaneous plantaricin A treatment [1] | TEER values for Caco-2/TC7 cells ([2]; 2.5 μg/ml, 24 and 48 hours, vs DMEM) | negative effect of IFN-γ on Caco-2/TC7 TEER with added plantaricin A [2] | percentage of migrated cells in comparison to the positive control ([3]; 1st of six time values (4 h)) [%] | percentage of migrated cells in comparison to the positive control ([3]; 2nd of six time values (8 h)) [%] | percentage of migrated cells in comparison to the positive control ([3]; 3rd of six time values (12 h)) [%] | percentage of migrated cells in comparison to the positive control ([3]; 4th of six time values (24 h)) [%] | percentage of migrated cells in comparison to the positive control ([3]; 5th of six time values (48 h)) [%] | percentage of migrated cells in comparison to the positive control ([3]; 6th of six time values (72 h)) [%] | gap between the wound margins vs control cells [4]
KSSAYSLQMGATAIKQVKKLFKKWGW [purified plantaricin A] | remarkably increased | completely eliminated | remarkable increase | eliminated also in this case the negative effects |  |  |  |  |  |  | 
KSSAYSLQMGATAIKQVKKLFKKWGW [chemically synthesized plantaricin A] | Same result | completely eliminated |  | eliminated also in this case the negative effects | 158.30 | 115.15 | 124.32 | 141.82 | 141.91 | 128.51 | 
hyaluronic acid |  |  |  |  |  |  |  |  |  |  | lesion gap is narrower than for not treated cells
